From patent US20100286069A1, “CATIONIC PEPTIDE FOR DELIVERING AN AGENT INTO A CELL” (priority 2007, published 2010) come the findings set out here.

Where no end group is shown, it is not given here. Some results are limits rather than exact numbers.

Data set [1] is described as follows: Zeta potential of pure peptide. The format is physicochemical.
The subject of a further data set is plasmid DNA. Briefly: Agarose gel electrophoresis DNA binding assay (Example 1). The following applies: 10 mM PBS pH 7.0; for N/P ratio at which bulk electrophoretic migration of DNA is retarded: N/P = arginine residues to DNA phosphorus. As to the method:
DNA binding and protection assays: Agarose gel electrophoresis was conducted to study the DNA binding ability of the peptides. The peptide/DNA complexes containing 2.5 μg of DNA per 50 μL of solution were formed at various N/P ratios. The complex solution (10 μL), together with 2 μL of loading dye (Promega), were then loaded into the wells of a 1.0 wt % agarose gel preloaded with 2 μL of ethidium bromide (per 50 mL of gel solution), and electrophoresed at 80 V for 50 minutes prior to imaging (ChemiGenius Q, Syngene).
To evaluate the ability of the peptides to fully condense DNA so as to prevent its premature degradation en route to the nuclei of cells, plasmid DNA encoding the 6.4 kb firefly luciferase (pCMV-luciferase VR1255_C) driven by the cytomegalovirus (CMV) promoter (Carl Wheeler, Vical, U.S.A.) was bound to each peptide in 10 mM phosphate-buffered saline (PBS, pH 7.0) at various N/P ratios (defined here as the molar ratio of arginine residues in the peptide to the phosphorus content in DNA). Gel electrophoresis assays were then performed.

The subject of data set [2] is HEK293 cells. Briefly: In vitro luciferase expression in HEK293 (Example 1). The format is cell-based, human. The method, then: (§1) In vitro luciferase and GFP expression: HEK 293 and HepG2 cells were maintained in Dulbecco's modified Eagle's medium (DMEM) and 4T1 cells were cultured in RPMI 1640 growth medium at 37° C. with 5% CO2. All growth media used were completed with 10% fetal bovine serum, 100 μg/mL of streptomycin and 100 U/ml of penicillin.
(§2) One day before transfection, cells were seeded at a density that depended on the cell line and type of experiments. For the luciferase transfection assay, 0.5 mL of medium containing 5-8×10^4 cells were seeded into each well of a 24-well plate, while 1.0 mL of medium containing 1.8-2.0×10^5 cells were pipetted into each well of a 12-well plate for GFP expression. Peptide/DNA complexes were formed at various N/P ratios in 10 mM PBS (pH 7.0) by dripping equivolume solutions of peptide into DNA. The mixture was then vortexed for ˜10 seconds and left to stand for at least 30 minutes before usage. Meanwhile, all media were replaced with fresh ones. […]
(§3) Analysis for luciferase expression was carried out after 3 days. […] The relative light unit (RLU) was measured with a luminometer (Lumat LB 9507, EG&G Berthold) and normalized against the protein concentration as measured with a bicinchoninic acid protein assay kit (Pierce). Luciferase activity was finally expressed as RLU/mg protein ±standard deviation of at least 4 samples. […]

The next data set has as its system HepG2 cells. Briefly: In vitro luciferase expression in HepG2 (Example 1). The format is cell-based, human. The method, then:
as §1, §2, §3

The test system of data set [3] is HEK293 cells. Briefly: GFP transfection assay in HEK293. The format is cell-based, human. As to the method:
as §1, §2
For the GFP transfection assay, cells were harvested after 2 days. […] The percentage of cells expressing GFP was then determined using a flow cytometer (FACSCalibur, Becton Dickinson) from 10,000 events and reported as a mean±standard deviation of at least 4 samples. […]

The test system of data set [4] is HEK293, HepG2 and 4T1 cells. Nature of the data set: In vitro luciferase expression, all three cell lines (Example 1). The format is cell-based, human, mouse. Conditions: all cell lines tested. The method, then: as §1, §2, §3
Data set [5] is described as follows: MTT cytotoxicity assay in 4T1 (Example 1). The format is cell-based. Conditions: mouse, 4T1 cells; read-out: cells viable at peak luciferase expression. As to the method: Cytotoxicity assay: Cells were seeded onto 96-well plates at a density of 6-10×10^3 cells/well. After 24 hours, all media were replaced with fresh ones and 10 μL of sample was introduced into each well. The sample consisted of either pure peptide or […] dissolved in the medium at the desired concentration. After 4 hours, all media were aspirated and replaced with fresh ones. Cytotoxicity analysis was carried out 3 days later by first replacing all wells with fresh media and adding 20 μL of MTT (5 mg/mL in PBS). After incubating for another 3 hours, all wells were carefully aspirated and replaced with 0.15 mL of DMSO to dissolve the internalized purple formazan crystals. The solution was homogenised and the relative colour intensity was measured with a microplate reader (PowerWave X, Bio-Tek Inc.). A test wavelength of 550 nm and a reference wavelength of 690 nm were used. Cell viability was represented by the average of (absorbance550 nm−absorbance690 nm) of the sample expressed as a percentage of the intensity of the controls ±standard deviation. Each data point was repeated at least 8 times.
For complexes of F, I and W, a peptide concentration of 0.02 and 0.10 mg/mL will approximately correspond to N/P ratio 5 and 25, respectively. For H, a peptide concentration of 0.03 and 0.09 mg/mL will approximately correspond to N/P ratio 10 and 30. […]
On the technique in general: Tetrazolium assays rely on reduction of a dye to a coloured formazan, in cell work by metabolically active cells.

The next data set concerns DNA. Nature of the data set: Kinetics of DNA capture (PicoGreen). The format is binding. As to the method:
Upon condensation of the DNA, however, PicoGreen becomes excluded resulting in a drop in florescent intensity. Making use of this behavior, the kinetics of the DNA capturing process was traced and quantified. At time=0, the peptide solution was dripped into the DNA solution and vortexed for ˜10 seconds. At appropriate time intervals, 10 μL of the complex solution was taken out and mixed with 990 μL of PicoGreen working solution (diluted 400 times from its stock solution with TE buffer, pH 7.3). The fluorescence emission spectrum was then recorded with a Fluorolog LFI 3751 fluorescence spectrometer (Jobin Yvon Horiba). The excitation wavelength used was 480 nm and the silts were set to 4 nm. The fluorescence area intensity at any time point expressed as a percentage of the fluorescence intensity obtained with the initial concentration of DNA (before mixing with peptide) was used to reflect the concentration of uncaptured/loosely captured DNA. A profile was plotted to trace the temporal evolution of the DNA capturing process. Blanks and background were corrected for in all calculations.
To further understand the efficiency and kinetics of DNA capture by the peptides, PicoGreen was used as a sensitive fluorescence probe. […] This behavior can be employed to trace the temporal evolution of free/loosely bound DNA in solution.

The test system of the next data set is 4T1 cells. Briefly: In vitro luciferase expression in 4T1 (Example 1). The format is cell-based, mouse. The method, then: as §1, §2, §3
Data set [6] deals with subcutaneous 4T1 breast tumors. Briefly: In vivo luciferase expression in 4T1 tumor-bearing mice. The method, then:
In vivo luciferase expression: Female Balb/c mice (Centre for Animals Resources, National University of Singapore) weighing 18-20 g were subcutaneously injected with 0.1 mL of serum-free RPMI 1640 containing 4×10^5 4T1 cells. A tumor was then allowed to develop in each mouse for 10-12 days. PEI and different formulations of I/DNA complexes were prepared as above, and 30 μl of sample containing 4 μg of DNA was injected directly into each tumor. The tumor tissues were harvested two days later. To analyse for luciferase activity, each tumor was first thoroughly homogenised in lysis buffer, followed by two further freeze-thaw cycles. The mixture was then centrifuged and assayed for its luciferase activity as described above. Expression level was given as RLU/mg protein ±standard deviation of at least 4 mice.
Finally, the in vivo gene transfection capacity of the peptides was evaluated by performing luciferase expression experiments with peptide I on mice bearing subcutaneous 4T1 breast tumors. […] This may be because the amount of DNA being delivered by the supernatant and sediment formulations was smaller. The large DNA complexes might also not be uniformly distributed in the tumor, limiting the cellular uptake of the large complexes. […]

In the case of NH2—H4R8—CONH2, the “zeta potential of pure peptide” value in data set [1] is listed as 8.0±0.2 mV. The “N/P ratio at which bulk electrophoretic migration of DNA is retarded” value in the data set on plasmid DNA is reported as 5.
With “FFFFFHHHHRRRRRRRR-NH2 [F, NH2—F5H4R8—CONH2]”, in the data set with HEK293 cells [2], the “luciferase expression level compared among the peptides” value is reported as “highest luciferase expression level” and the “luciferase expression level, times that of PEI” value was 0.8 times. Also, in the data set with HepG2 cells, the “luciferase expression level compared among the peptides” value was “highest luciferase expression level” and the “luciferase expression level, times that of PEI” value was found to be 0.2 times. Also, in the data set with HEK293 cells [3], the “proportion of cells transfected with the GFP gene, comparison” value is on record as “transfected more HEK293 cells with the GFP gene than H”.
In the case of “NH2—W5H4R8—CONH2 (H-WWWWWHHHHRRRRRRRR-NH2)”, the “gene expression level compared among the peptides” value in data set [4] is “lowest gene expression level”.
For the substance “IIIIIHHHHRRRRRRRR-NH2 [I, NH2—I5H4R8—CONH2]”, the “zeta potential of pure peptide” value in data set [1] amounted to 15.8±0.2 mV. In data set [5], the viability at 4 h was about 90%. Besides, the “quenching of PicoGreen fluorescence compared with H” value in the data set on DNA is “to a greater extent”. Moreover, the “luciferase expression level compared among the peptides” value in the data set on 4T1 cells (4T1) is reported as “optimal”. Moreover, the “peak luciferase expression level, times higher than PEI” value with 4T1 cells (4T1 cells, PEI branched Mw 25,000) is given as 6.4 times. Besides, the “gene expression in mouse breast cancer model compared with PEI” value in data set [6] is listed as “much more efficiently than PEI”. For the same substance, in the data set with plasmid DNA, the “N/P ratio from which ethidium bromide is completely excluded from the condensed DNA” value was at least 5 and the “N/P ratio at which bulk electrophoretic migration of DNA is retarded” value stood at 2.
